Assay results published in patent publication US5002942A, “1,5-benzothiazepine derivatives, their preparation and their use in the treatment of cardiovascular disorders” (Sankyo Company, Limited, priority 1988, dated 1991).

Columns and labels:
[1] = target: T1, calcium channel (Cavia porcellus, UniProt O35505); experiment: Calcium channel blocking action (calcium-induced contraction of excised taenia coli); details: 0.5 h, test compound 10^-8 g/ml, 30 minutes incubation, guinea pig taenia coli, hydrochlorides (Example 34: fumarate)
T1 construct: The taenia coli excised from a male guinea pig; from tissue; host or cells: guinea pig taenia coli (excised smooth muscle strip)
T1 sequence (O35505 whole entry): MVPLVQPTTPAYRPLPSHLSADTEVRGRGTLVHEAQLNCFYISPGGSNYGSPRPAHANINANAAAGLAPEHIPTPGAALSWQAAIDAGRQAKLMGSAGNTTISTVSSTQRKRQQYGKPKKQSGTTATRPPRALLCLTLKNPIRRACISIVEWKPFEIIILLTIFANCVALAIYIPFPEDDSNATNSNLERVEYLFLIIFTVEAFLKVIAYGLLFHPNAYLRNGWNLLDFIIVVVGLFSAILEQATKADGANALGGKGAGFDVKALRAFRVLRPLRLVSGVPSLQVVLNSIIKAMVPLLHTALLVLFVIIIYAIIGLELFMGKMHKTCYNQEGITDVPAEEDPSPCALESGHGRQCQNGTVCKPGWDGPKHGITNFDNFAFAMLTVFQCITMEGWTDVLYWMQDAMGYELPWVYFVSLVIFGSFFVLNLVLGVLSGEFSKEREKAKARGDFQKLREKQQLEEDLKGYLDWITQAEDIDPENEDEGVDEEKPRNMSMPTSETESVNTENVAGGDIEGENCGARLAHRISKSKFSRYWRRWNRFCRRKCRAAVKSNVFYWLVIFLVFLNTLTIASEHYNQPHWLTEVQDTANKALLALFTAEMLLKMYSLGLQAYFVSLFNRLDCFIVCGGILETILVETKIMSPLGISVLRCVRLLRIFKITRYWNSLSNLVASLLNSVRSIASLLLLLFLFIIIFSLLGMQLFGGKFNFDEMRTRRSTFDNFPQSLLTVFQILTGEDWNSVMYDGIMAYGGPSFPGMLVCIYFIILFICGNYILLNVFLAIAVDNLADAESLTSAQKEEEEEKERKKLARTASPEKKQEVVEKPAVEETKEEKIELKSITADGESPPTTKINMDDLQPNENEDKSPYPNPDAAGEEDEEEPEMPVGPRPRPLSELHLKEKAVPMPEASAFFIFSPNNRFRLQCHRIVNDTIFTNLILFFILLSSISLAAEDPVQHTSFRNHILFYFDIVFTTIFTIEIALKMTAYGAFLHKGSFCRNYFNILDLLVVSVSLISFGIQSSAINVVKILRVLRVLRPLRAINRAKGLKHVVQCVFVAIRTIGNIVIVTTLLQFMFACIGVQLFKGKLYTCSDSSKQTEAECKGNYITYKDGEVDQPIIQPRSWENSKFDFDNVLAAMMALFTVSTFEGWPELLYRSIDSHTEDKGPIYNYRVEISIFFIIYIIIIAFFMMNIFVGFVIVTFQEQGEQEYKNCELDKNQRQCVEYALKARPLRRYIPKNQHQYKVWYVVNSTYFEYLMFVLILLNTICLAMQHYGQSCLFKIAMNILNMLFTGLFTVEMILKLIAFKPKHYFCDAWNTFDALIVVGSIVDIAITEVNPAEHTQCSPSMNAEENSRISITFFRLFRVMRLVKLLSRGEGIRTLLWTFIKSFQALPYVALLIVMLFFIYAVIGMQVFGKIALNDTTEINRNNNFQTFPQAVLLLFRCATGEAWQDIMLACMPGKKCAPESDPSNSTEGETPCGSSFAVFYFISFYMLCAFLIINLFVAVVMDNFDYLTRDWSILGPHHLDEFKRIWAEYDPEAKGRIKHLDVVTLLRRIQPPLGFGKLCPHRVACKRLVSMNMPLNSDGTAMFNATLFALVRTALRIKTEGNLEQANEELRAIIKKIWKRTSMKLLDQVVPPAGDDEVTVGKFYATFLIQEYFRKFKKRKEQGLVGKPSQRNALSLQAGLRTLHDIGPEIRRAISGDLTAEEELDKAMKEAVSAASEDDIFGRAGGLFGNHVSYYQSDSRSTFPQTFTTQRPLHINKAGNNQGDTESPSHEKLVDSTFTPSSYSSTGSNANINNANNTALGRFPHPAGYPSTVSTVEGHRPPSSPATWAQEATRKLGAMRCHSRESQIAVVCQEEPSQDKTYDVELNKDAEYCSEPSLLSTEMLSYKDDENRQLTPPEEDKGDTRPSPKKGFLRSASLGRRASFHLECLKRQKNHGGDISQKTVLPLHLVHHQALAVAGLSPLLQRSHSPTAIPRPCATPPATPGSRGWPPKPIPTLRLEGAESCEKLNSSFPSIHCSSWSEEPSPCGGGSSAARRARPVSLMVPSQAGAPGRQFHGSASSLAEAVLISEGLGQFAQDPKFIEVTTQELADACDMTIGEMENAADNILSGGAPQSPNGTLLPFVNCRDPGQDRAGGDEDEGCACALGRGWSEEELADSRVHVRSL
Description: The taenia coli excised from a male guinea pig weighing from 250 to 300 g was cut into a length of 6 to 7 mm and suspended in an organ bath filled with Tylord's solution (sodium chloride 97 mM, potassium chloride 40 mM, sodium hydrogen carbonate 11.9 mM, disodium hydrogen phosphate 0.4 mM, glucose 5.5 mM; pH 7.1). The bath solution contained no calcium ions and was aerated with a mixture of 95% oxygen and 5% carbon dioxide by volume. To this solution were added 10 and 30 mM solutions of calcium chloride at 30 minute intervals to obtain a final concentration of 0.4 mM. The tension which developed 1n the taenia coli was measured by an isometric transducer. The organ bath was then washed twice or more with Tylord's solution containing no calcium ions after which it was allowed to equilibrate for 30 minutes. After the muscle had stabilised, test compound dissolved in physiological saline was added to the bath to a final concentration of 10^-8 g/ml, and the bath was incubated for 30 minutes. 30 and 100 mM solutions of calcium chloride were again added to the bath, and the developed tension was measured. From the magnitude of the calcium-induced contraction before and after the test drug had been added the inhibitory rate was calculated using the following formula: [formula] where: Co=contraction induced by calcium ion before a test drug was added: and
Ct=contraction induced by calcium ion after the test drug had been added.
In addition to the compounds of the invention, we also carried out the same test with the following compounds of the prior art: (±)-diltiazem, […], (±)-8-chlorodiltiazem (8-Cl-diltiazem). (±)-8-methoxydiltiazem (8-MeO-diltiazem) and (±)-8-benzyloxydiltiazem (8-BzO-diltiazem).
In the Table, the compounds of the invention are identified by the number of the one of the foregoing Examples in which the compound was prepared. The prior art compounds are identified by the abbreviated generic names shown above in parentheses.
All of the compounds except for that of Example 34 were employed as the hydrochlorides; that of Example 34 was employed as the fumarate.

[2] = system: SHR (spontaneously hypertensive rats); experiment: Antihypertensive action in SHR; format: in vivo; details: conscious male SHR, hydrochlorides, 24 hours
Description: Male SHR (spontaneously hypertensive rats), 23 to 30 weeks old, were anesthesized with sodium pentobarbital 50 mg/kg intraperitoneal administration), and a polyethylene cannula was inserted through the left femoral artery into the abdominal aorta. The other end of the cannula was led out of the body and fixed at the back of the neck. One week after the operation, when the animal had recovered from the stress of the surgery, the other end of the cannula was connected to a blood pressure measuring device, which was constructed according to the directions of Laffan et al. [Laffan, P.J., Peterson A., Hitch S,W. and Jeunelot C., Cardiovascular Res. 6. 319-324 (1972)], but with slight modifications. The blood pressure and heart rate of the conscious and […] SHR were measured. After the blood pressure and the heart rate had stabilised for more than one hour, the test drug was administered by […]. After administration of the test sample, the blood pressure and the heart rate were measured every 15 minutes over a period of 24 hours. The maximum decrease in blood pressure and the half-time of the blood pressure lowering activity thus determined are shown in Table 6.
All of the test compounds were employed as the hydrochlorides.

[3] = Rattus norvegicus, po, Dose 10 mg/kg, read-out: Maximum hypotension (%)
[4] = Rattus norvegicus, po, Dose 30 mg/kg, read-out: Maximum hypotension (%)

Row | Structure (SMILES) | inhibition at 0.01 µg/mL [1] [%] | Half-time of hypotension action ([2]; Dose 10 mg/kg) [h] | change in vivo at 10 mg/kg [2, 3] [%] | other results
1 | CC(=O)O[C@H]1C(=O)N(CCN(C)C)c2ccc(Oc3ccccc3)cc2S[C@H]1c1ccc2c(c1)OCO2 (relative stereo) [Example 6, (±)-Cis-3-acetoxy-5-(2-dimethylaminoethyl)-2,3-dihydro-2-(3,4-methylenedioxyphenyl)-8-phenoxy-1,5-benzothiazepin-(5H)-one] | 53 |  |  | 
2 | COc1ccc(Oc2ccc3c(c2)S[C@@H](c2ccc(OC)cc2)[C@@H](OC(C)=O)C(=O)N3CCN(C)C)cc1 (relative stereo) [Example 28, (±)-cis-3-Acetoxy-5-(2-dimethylaminoethyl)-2,3-dihydro-8-(4-methoxyphenoxy)-2-(4-methoxyphenyl)-1,5-benzothlazepin-4-(5H)-one] | 59 |  |  | 
3 | CCN(CC)CCN1C(=O)[C@H](OC(C)=O)[C@H](c2ccc(OC)cc2)Sc2cc(Oc3ccccc3)ccc21 [Example 36, (2S, 3S)-3-Acetoxy-5-(2-diethylaminoethyl)-2,3-dihydro-2-(4-methoxyphenyl)-8-phenoxy-1,5-benzothiazepin-4(5H)-one] | 80 | 8.2 | -29 | 
4 | COc1ccc([C@@H]2Sc3cc(Oc4ccc(F)cc4)ccc3N(CCN(C)C)C(=O)[C@@H]2OC(C)=O)cc1F [Example 32, (2S, 3S)-3-Acetoxy-5-(2-dimethylaminoethyl)-2-(3-fluoro-4-methoxyphenyl)-8-(4-fluorophenoxy)-2,3-dihydro-1,5-benzothiazepin-4(5H)-one] | 100 | 13.8 | -41 | 
5 | COc1ccc([C@@H]2Sc3cc(Oc4ccccc4)ccc3N(CCN(C)C)C(=O)[C@@H]2OC(C)=O)cc1 [Example 12, (2S, 3S)-3-Acetoxy-5-(2-dimethylaminoethyl)-2,3-dihydro-2-(4-methoxyphenyl1}-8-phenoxy-1,5-benzothiazepin-4(5H)-one] | 86 |  |  | Half-time of hypotension action ([2]; Dose 5 mg/kg): 11.8 h; change in vivo at 5 mg/kg ([2]; Rattus norvegicus, po, Dose 5 mg/kg, read-out: Maximum hypotension (%)): -38%
6 | COc1ccc([C@@H]2Sc3cc(Oc4ccc5c(c4)OCO5)ccc3N(CCN(C)C)C(=O)[C@@H]2OC(C)=O)cc1 [Example 34, (2S, 3S)-3-Acetoxy-5-(2-dimethylaminoethyl)-2,3-dihydro-2-(4-methoxyphenyl)-8-(3,4-methylenedioxyphenoxy)-1,5-benzothiazepin-4(5H)-one] | 88 |  |  | 
7 | COc1ccc([C@@H]2Sc3cc(Oc4ccc(Cl)cc4)ccc3N(CCN(C)C)C(=O)[C@@H]2OC(C)=O)cc1 (relative stereo) [Example 30, (±)-cis-3-Acetoxy-8-(4-chlorophenoxy)-2,3-dihydro-5-(2-dimethylaminoethyl)-2-(4-methoxyphenyl)-1,5-benzothiazepin-4-(5H)-one] | 56 |  |  | 
8 | COc1ccc([C@@H]2Sc3cc(OC)ccc3N(CCN(C)C)C(=O)[C@@H]2OC(C)=O)cc1 (relative stereo) [(±)-8-MeO-diltiazem, cis-3-acetoxy-8-methoxy-2,3-dihydro-5-(2-dimethylaminoethyl)-2-(4-methoxyphenyl)-1,5-benzotbiazepin-4(5E,uns/H/ )-one, reference compound] | 67 |  |  | Half-time of hypotension action ([2]; Dose 30 mg/kg): 5.8 h; change in vivo at 30 mg/kg [2, 4]: -35%
9 | COc1ccc([C@@H]2Sc3cc(Cc4ccc(F)cc4)ccc3N(CCN(C)C)C(=O)[C@@H]2OC(C)=O)cc1 [Example 38, (2S, 3S)-3-Acetoxy-5-(2-dimethylaminoethyl)-8-(4-fluoro-benzyl)-2,3-dihydro-2-(4-methoxyphenyl)-1,5-benzothiazepin-4(5H)-one] | 69 | 11.8 | -32 | 
10 | COc1ccc([C@@H]2Sc3ccccc3N(CCN(C)C)C(=O)[C@@H]2OC(C)=O)cc1 (relative stereo) [(±)-diltiazem, reference compound] | 11 |  |  | Half-time of hypotension action ([2]; Dose 30 mg/kg): 3.8 h; change in vivo at 30 mg/kg [2, 4]: -17%
11 | COc1ccc([C@@H]2Sc3cc(Oc4ccccc4)ccc3N(CCN(C)C)C(=O)[C@@H]2OC(C)=O)cc1F (racemic) [Example 4, (±)-Cis-3-acetoxy-5-(2-dimethylaminoethyl)-2-(3-fluoro-4-methoxyphenyl)-2,3-dihydro-8-phenoxy-1,5-benzothiazepin-4(5H)-one] | 84 |  |  | Half-time of hypotension action ([2]; Dose 30 mg/kg): 16.0 h; change in vivo at 30 mg/kg [2, 4]: -36%
12 | COc1ccc([C@@H]2Sc3cc(Oc4ccccc4)ccc3N(CCN(C)C)C(=O)[C@@H]2OC(C)=O)cc1F [Example 16, (2S, 3S)-3-Acetoxy-5-(2-dimethylaminoethyl)-2-(3-fluoro-4-methoxyphenvl)-2,3-dihydro-8-phenoxy-1,5-benzothiazepin-4(5H)-one] | 80 |  |  | Half-time of hypotension action ([2]; Dose 3 mg/kg): 9.4 h; change in vivo at 3 mg/kg ([2]; Rattus norvegicus, po, Dose 3 mg/kg, read-out: Maximum hypotension (%)): -21%
13 | COc1ccc([C@@H]2Sc3cc(Oc4ccc(F)cc4)ccc3N(CCN(C)C)C(=O)[C@@H]2OC(C)=O)cc1F (racemic) [Example 24, (±)-cis-3-Acetoxy-5-(2-dimethylaminoethyl)-2-(3-fluoro-4-methoxyphenyl)-8-(4-fluorophenoxy)-2,3-dihydro-1,5-benzothiazepin-4(5H)-one] | 93 |  |  | 
14 | COc1ccc([C@@H]2Sc3cc(OCc4ccccc4)ccc3N(CCN(C)C)C(=O)[C@@H]2OC(C)=O)cc1 (racemic) [(±)-8-BzO-diltiazem, cis-3-acetoxy-8-benzyloxy-2,3-dihydro-5-(2-dimethylaminoethyl)-2-(4-methoxyphenyl)-1,5-benzothiazepin-4(5H)-one, reference compound] | 55 |  |  | Half-time of hypotension action ([2]; Dose 30 mg/kg): 7.7 h; change in vivo at 30 mg/kg [2, 4]: -19%
15 | COc1ccc([C@@H]2Sc3cc(Cl)ccc3N(CCN(C)C)C(=O)[C@@H]2OC(C)=O)cc1 (relative stereo) [(±)-8-Cl-diltiazem, cis-3-acetoxy-8-chloro-2,3-dihydro-5-(2-dimethylaminoethyl)-2-(4-methoxyphenyl)-1,5-benzothiazepin-4(5E,uns/H/ )-one, reference compound] | 56 |  |  | Half-time of hypotension action ([2]; Dose 30 mg/kg): 6.1 h; change in vivo at 30 mg/kg [2, 4]: -32%
16 | COc1ccc([C@@H]2Sc3cc(Oc4ccc(F)cc4)ccc3N(CCN(C)C)C(=O)[C@@H]2OC(C)=O)cc1 [Example 14, (2S, 3S)-3-Acetoxy-5-(2-dimethylaminoethyl)-8-(4-fluoro-phenoxy)-2,3-dihydro-2-(4-methoxyphenyl)-1,5-benzothiazpin-4(5H)-one] | 94 | 12.7 | -37 | 
17 | COc1ccc([C@@H]2Sc3cc(Cc4ccccc4)ccc3N(CCN(C)C)C(=O)[C@@H]2OC(C)=O)cc1 [Example 18] | 77 | 13.8 | -32 | 
18 | COc1ccc([C@@H]2Sc3cc(Cc4cccs4)ccc3N(CCN(C)C)C(=O)[C@@H]2OC(C)=O)cc1 [Example 20, (2S, 3S)-3-Acetoxy-5-(2-dimethylaminoethyl)-2,3-dihydro-2-(4-Methoxyphenyl)-8-(2-thienylmethyl)-1,5-benzothiazepin-4(5H)-one] | 57 | 8.5 | -24 | 
19 | COc1ccc([C@@H]2Sc3cc(Oc4ccc(F)cc4)ccc3N(CCN(C)C)C(=O)[C@@H]2OC(C)=O)cc1 (racemic) [Example 22, (±)-cis-3-Acetoxy-5-(2-dimethylaminoethyl)-8-(4-fluoro-phenoxy)-2,3-dihydro-2-(4-methoxyphenyl)-1,5-benzothiazepin-4(5H)-one] | 52 |  |  | 
